This passage reports IC50 results from ChEMBL document CHEMBL4028904, “Discovery of a Novel Series of Tankyrase Inhibitors by a Hybridization Approach” (J Med Chem, 2017).

The target in test [1] is T1, Poly [ADP-ribose] polymerase tankyrase-2 (Homo sapiens, UniProt Q9H2K2).
T1 sequence (Q9H2K2 whole entry): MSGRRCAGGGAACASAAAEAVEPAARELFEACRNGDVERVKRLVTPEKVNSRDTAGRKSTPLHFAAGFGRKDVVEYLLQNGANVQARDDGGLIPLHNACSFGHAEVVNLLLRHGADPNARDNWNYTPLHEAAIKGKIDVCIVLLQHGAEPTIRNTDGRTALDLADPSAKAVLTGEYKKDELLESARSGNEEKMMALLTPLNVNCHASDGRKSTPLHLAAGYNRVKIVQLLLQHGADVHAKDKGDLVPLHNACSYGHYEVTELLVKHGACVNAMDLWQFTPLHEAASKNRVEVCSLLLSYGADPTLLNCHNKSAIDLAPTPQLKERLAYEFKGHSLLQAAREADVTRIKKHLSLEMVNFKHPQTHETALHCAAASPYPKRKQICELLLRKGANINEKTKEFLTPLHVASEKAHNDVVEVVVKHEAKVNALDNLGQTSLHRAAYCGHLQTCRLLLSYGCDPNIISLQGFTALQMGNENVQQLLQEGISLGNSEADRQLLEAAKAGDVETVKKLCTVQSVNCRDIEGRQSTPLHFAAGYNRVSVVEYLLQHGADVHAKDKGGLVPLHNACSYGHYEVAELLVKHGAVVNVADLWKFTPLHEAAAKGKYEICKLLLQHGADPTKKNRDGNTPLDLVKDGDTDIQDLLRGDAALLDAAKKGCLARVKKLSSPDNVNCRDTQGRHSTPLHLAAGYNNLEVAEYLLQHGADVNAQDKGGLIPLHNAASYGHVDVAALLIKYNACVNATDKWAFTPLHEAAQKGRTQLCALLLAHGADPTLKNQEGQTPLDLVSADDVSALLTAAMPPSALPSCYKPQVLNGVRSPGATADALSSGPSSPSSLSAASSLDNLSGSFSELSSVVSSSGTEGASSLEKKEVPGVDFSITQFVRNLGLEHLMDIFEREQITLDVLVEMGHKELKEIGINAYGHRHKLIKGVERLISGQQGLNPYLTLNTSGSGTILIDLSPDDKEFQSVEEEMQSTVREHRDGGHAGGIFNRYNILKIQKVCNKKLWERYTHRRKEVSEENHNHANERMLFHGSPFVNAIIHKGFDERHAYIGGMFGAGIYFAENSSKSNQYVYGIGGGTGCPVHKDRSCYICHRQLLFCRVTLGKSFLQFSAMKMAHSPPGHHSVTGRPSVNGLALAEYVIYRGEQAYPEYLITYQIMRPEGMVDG
Description: Inhibition of TNKS2 (unknown origin) transfected in human SW480 cells assessed as inhibition of Wnt3a-induced Wnt/beta-catenin signaling after 48 hrs by ST-luciferase reporter gene assay. The class given is cell-based. (In general: In a reporter assay the amount or activity of a reporter protein is the signal.)

Test [2] deals with T1, Poly [ADP-ribose] polymerase tankyrase-2. The experiment in a line: Inhibition of TNKS2 (unknown origin) expressed in HEK293 cells assessed as inhibition of Wnt3a-induced Wnt/beta-catenin signaling after 24 hrs by luciferase reporter gene assay. The class given is cell-based.
For test [3] the target is unchanged. Description: Inhibition of human TNKS2 (873 to 1162 residues) assessed as reduction in NAD+ consumption by fluorescence assay.

What is called IC50 is the point on the concentration scale where inhibition reaches its midpoint. Turning to `O=c1[nH]c2ccccc2n1[C@H]1C[C@H](c2nnc(-c3ccncn3)n2-c2ccccc2Cl)C1`, the IC50 was 410 nM in test [1], 200 nM in test [2] and 9.8 nM in test [3].
Consider `N#Cc1ccc2c(c1)[nH]c(=O)n2[C@H]1CC[C@H](c2nnc(-c3ccncn3)n2-c2ccccc2Cl)CC1`, for which the IC50 in test [1] stood at 1490 nM; in test [2], 120 nM; in test [3], 330 nM.
`N#Cc1ccc2c(c1)[nH]c(=O)n2-c1ccc(-c2nnc(-c3ccncn3)n2-c2ccccc2Cl)cc1`: the IC50 in test [2] is greater than 10000 nM; in test [3], 340 nM.
On to `O=c1[nH]c2ccccc2n1[C@H]1CC[C@H](c2nnc(-c3ccncn3)n2-c2ccccc2Cl)CC1`, for which the IC50 in test [1] was 1800 nM; in test [2], 1060 nM; in test [3], 430 nM.
